Reference: PMC8943889, “Synthetic studies with the brevicidine and laterocidine lipopeptide antibiotics including analogues with enhanced properties and in vivo efficacy” (Chemical Science, 2022)
Converted amounts (≈) assume the structure as drawn.

Assays:
Assay type in all cases: cell-based
K. pneumoniae 2048 = conditions: 2048, 16 h
Description: (§1) Minimum inhibitory concentrations (MICs) were determined by broth microdilution according to CLSI guidelines in triplicate. Blood agar plates were inoculated with glycerol stocks of E. coli ATCC 25922, E. coli MCR-1 (clinical isolate from Utrecht Medical Centre, NL), E. coli EQAS MCR-2 (clinical isolate from Wageningen University and Research, NL), K. pneumoniae ATCC 11228, K. pneumoniae ATCC 13883, K. pneumonia 2048 (clnical isolate from Vrije Universiteit Amsterdam Medical Centre, NL), K. pneumonia JS-123 (clinical isolate from Utrecht Medical […]
(§2) (clinical isolate from Rijksinstituut voor Volksgezondheid en Milieu, NL), A. baumannii MDR (clinical isolate from Vrije Universiteit Amsterdam Medical Centre, NL), P. aeruginosa ATCC 27853, P. aeruginosa PAO1, P. aeruginosa NRZ-03961 (Reference strain from Das Nationale Referenzzentrum für gramnegative Krankenhauserreger, DE), P. aeruginosa M-120 (clinical isolate from Leiden University Medical Centre, NL) and S. aureus USA300 (clinical isolate from Texas Children's Hospital, USA). E. coli 25922 MCR1 was grown on LB agar supplemented with kanamycin. The inoculated agar plates were then incubated for 16 h at 37°C . Individually grown colonies were subsequently used to inoculate 3 mL aliquots of TSB that were then incubated at 37°C with shaking at 220 rpm. In parallel, the lipopeptide antibiotics to be assessed were serially diluted with Mueller-Hinton broth (MHB) in polypropylene 96-well plates (50 µL in each well).
(§3) Once the OD600 of the bacterial suspensions reached 0.5, the bacteria were diluted with MHB (final concentration 2 × 10^5 CFU mL−1) and added to the microplates containing the test compounds (50 µL to each well, final volume: 100 µL). The well-plates were sealed with an adhesive membrane and after 16 h of incubation at 37°C with shaking at 220 rpm the wells were visually inspected for bacterial growth. MIC values reported are based on three technical replicates and defined as the lowest concentration of the compound that prevented visible growth of bacteria. […]

P. aeruginosa PAO1 = conditions: PAO1, 16 h
Description: as §1, §2, §3

K. pneumoniae ATCC 11228 = conditions: ATCC 11228, 16 h
Description: as §1, §2, §3

P. aeruginosa NRZ-03961 = conditions: NRZ-03961, 16 h
Description: as §1, §2, §3

K. pneumoniae JS-123 = conditions: JS-123, 16 h
Description: as §1, §2, §3

A. baumannii ATCC 17961 = conditions: ATCC 17961, 16 h
Description: as §1, §2, §3

A. baumannii ATCC 17978 = conditions: ATCC 17978, 16 h
Description: as §1, §2, §3

E. coli ATCC 25922 [1] = conditions: ATCC 25922, 16 h
Description: as §1, §2, §3

P. aeruginosa M-120 = conditions: M-120, 16 h
Description: as §1, §2, §3

A. baumannii 2018-006 = conditions: 2018-006, 16 h
Description: as §1, §2, §3

S. aureus USA300 = conditions: USA300, 16 h
Description: as §1, §2, §3

P. aeruginosa ATCC 27853 = conditions: ATCC 27853, 16 h
Description: as §1, §2, §3

K. pneumoniae ATCC 13883 = conditions: ATCC 13883, 16 h
Description: as §1, §2, §3

Gram-negative bacteria = assay: MIC comparison across the bacterial panel of Table 1; conditions: enantiomer versus natural product, strains of Table 1
Description: as §1
as §2, with “Individually grown colonies were subsequently used to inoculate 3 mL aliquots of TSB that were then incubated at 37°C with shaking at 220 rpm.” left out, “well). […]” for “well).”

E. coli ATCC 25922 [2] = assay: LPS antagonization assay; conditions: E. coli ATCC 25922, MHB supplemented with 1 mg/mL LPS from E. coli O55:B5, 16 h 37 °C
Description: Figure S6. LPS antagonization assay. A blood agar plate was inoculated with a glycerol stock of E. coli ATCC 25922. The […]
inoculated agar plate was then incubated for 16 h at 37 °C. An individually grown colony was subsequently used to inoculate 3 mL […]
of TSB that was then incubated at 37 °C with shaking at 220 rpm. In parallel, the compounds to be assessed were serially diluted […]
with Mueller-Hinton broth (MHB) in polypropylene 96-well plates (50 µL in each well). Once the OD600 of the bacterial […]
suspensions reached 0.5, the bacteria were diluted with MHB (final concentration 2 × 10^5 CFU mL−1). The media were then either […]
supplemented with 1 mg/mL of LPS (lipopolysaccharides from E. coli O55:B5, Sigma-Aldrich) or added directly to the microplates […]
containing the test compounds (50 µL to each well, final volume: 100 µL). The well-plates were sealed with an adhesive membrane and after 16 h of incubation at 37°C with shaking at 220 rpm. The w ells were visually inspected for bacterial growth.
(1 picture or pasted object on this page, not shown here)

| SMILES | MIC (K. pneumoniae 2048) [µg/mL] | MIC (P. aeruginosa PAO1) [µg/mL] | MIC (K. pneumoniae ATCC 11228) [µg/mL] | MIC (P. aeruginosa NRZ-03961) [µg/mL] | MIC (K. pneumoniae JS-123) [µg/mL] | MIC (A. baumannii ATCC 17961) [µg/mL] | MIC (A. baumannii ATCC 17978) [µg/mL] | MIC (E. coli ATCC 25922 [1]) [µg/mL] | MIC (P. aeruginosa M-120) [µg/mL] | MIC (A. baumannii 2018-006) [µg/mL] | MIC (S. aureus USA300) [µg/mL] | MIC (P. aeruginosa ATCC 27853) [µg/mL] | MIC (K. pneumoniae ATCC 13883) [µg/mL] | MIC values higher than the natural products (Gram-negative bacteria) | decrease of antibacterial activity in the presence of LPS (E. coli ATCC 25922 [2]) [fold] |
| --- | --- | --- | --- | --- | --- | --- | --- | --- | --- | --- | --- | --- | --- | --- | --- |
| CCC(C)CCC(=O)N[C@@H](CC(N)=O)C(=O)N[C@@H](Cc1ccc(O)cc1)C(=O)N[C@@H](Cc1c[nH]c2ccccc12)C(=O)N[C@@H](CCCN)C(=O)N[C@H](CCCN)C(=O)NCC(=O)N[C@@H](CCCN)C(=O)N[C@H](Cc1c[nH]c2ccccc12)C(=O)N[C@H]1C(=O)N[C@H]([C@H](C)CC)C(=O)NCC(=O)N[C@H](CO)C(=O)O[C@H]1C (single isomer, unassigned) [ent-Brev (ent-1), ent-brevicidine] | 32 (≈ 21.1 µM) | 32 (≈ 21.1 µM) | 32 (≈ 21.1 µM) | 32 (≈ 21.1 µM) | 8 (≈ 5.26 µM) | 32 (≈ 21.1 µM) | 16 to 32 | 16 (≈ 10.5 µM) | 16 (≈ 10.5 µM) | 8 to 16 | >64 | 16 (≈ 10.5 µM) | 32 (≈ 21.1 µM) | 8- to 32 fold | – |
| CC[C@@H](C)[C@H]1NC(=O)[C@H](NC(=O)[C@@H](Cc2c[nH]c3ccccc23)NC(=O)[C@H](CCCN)NC(=O)CNC(=O)[C@@H](CCCN)NC(=O)[C@H](CCCN)NC(=O)[C@H](Cc2c[nH]c3ccccc23)NC(=O)[C@H](Cc2ccc(O)cc2)NC(=O)[C@H](CO)NC(=O)CCCCCC(C)C)[C@H](C)OC(=O)CNC(=O)CNC(=O)[C@@H](CC(N)=O)NC1=O (single isomer, unassigned) [ent-Lat (ent-2), ent-laterocidine] | 16 (≈ 9.97 µM) | 16 (≈ 9.97 µM) | 16 (≈ 9.97 µM) | 16 (≈ 9.97 µM) | 4 (≈ 2.49 µM) | 4 (≈ 2.49 µM) | 4 (≈ 2.49 µM) | 8 (≈ 4.98 µM) | 16 (≈ 9.97 µM) | 4 (≈ 2.49 µM) | 64 (≈ 39.9 µM) | 8 (≈ 4.98 µM) | 16 (≈ 9.97 µM) | 8- to 32 fold | ≥ 8 |
| CC[C@H](C)[C@@H]1NC(=O)[C@@H](NC(=O)[C@H](Cc2c[nH]c3ccccc23)NC(=O)[C@@H](CCCN)NC(=O)CNC(=O)[C@H](CCCN)NC(=O)[C@@H](CCCN)NC(=O)[C@@H](Cc2c[nH]c3ccccc23)NC(=O)[C@@H](Cc2ccc(O)cc2)NC(=O)[C@@H](CO)NC(=O)CCCCCC(C)C)[C@@H](C)OC(=O)CNC(=O)CNC(=O)[C@H](CC(N)=O)NC1=O [Lat (2), laterocidine] | 2 (≈ 1.25 µM) | 1 (≈ 0.623 µM) | 2 (≈ 1.25 µM) | 1 to 2 | 0.5 (≈ 0.312 µM) | 0.5 (≈ 0.312 µM) | 0.5 (≈ 0.312 µM) | 1 (≈ 0.623 µM) | 1 (≈ 0.623 µM) | 2 (≈ 1.25 µM) | 64 (≈ 39.9 µM) | ≤0.5 | 1 (≈ 0.623 µM) | – | ≥ 8 |
